Data on six cell lines can be found in the supplement of paper PMC10307832.

Assay in all cases: relative viability (nuclei count vs DMSO), 5 days (fraction); higher = more cells survive
Compound in experiment [1]: C=CCc1cccc(/C=N/NC(=O)CN2CCN(Cc3ccccc3)CC2)c1O [PAC-1] + CS(=O)(=O)N1CCN(Cc2cc3nc(-c4cccc5[nH]ncc45)nc(N4CCOCC4)c3s2)CC1 [Pictilisib] (partner 1 µM)
A digest of the protocol: (§1)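 Lung cancer cell lines were pin-tool dosed in 1536-well plates on the day after seeding, with either a lone drug or a fixed anchor-drug dose plus five library-drug doses (not always all listed) in √10 steps. Nuclei were counted on 4× images after 5 days. Relative viability is the ratio of treated-well to vehicle-well nuclei counts, with each value a median of duplicate plates.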

Compound in experiment [2]: C=CC(=O)N1CCC[C@@H](n2nc(-c3ccc(Oc4ccccc4)cc3)c3c(N)ncnc32)C1 [Ibrutinib] + Cc1cc(Nc2cc(N3CCN(C)CC3)nc(Sc3ccc(NC(=O)C4CC4)cc3)n2)n[nH]1 [Tozasertib] (partner 0.1 µM)
The essentials:
as §1

Compound in experiment [3]: C=CC(=O)Nc1cc(-n2c(=O)ccc3cnc4ccc(-c5ccc(NS(C)(=O)=O)cc5)cc4c32)ccc1C [BMX-IN-1] + COc1cccc2cc(-c3nc([C@H]4CC[C@H](C(=O)O)CC4)n4ncnc(N)c34)[nH]c12 [OSI-027] (partner 0.5 µM)
A digest of the protocol: as §1

Compound in experiment [4]: C=CCc1cccc(/C=N/NC(=O)CN2CCN(Cc3ccccc3)CC2)c1O [PAC-1] + O=C(CCCCCCC(=O)Nc1ccccc1)NO [Vorinostat] (partner 1 µM)
A digest of the protocol: as §1

With EBC-1, the relative viability in experiment [1] (first compound 0.02 µM) worked out at 0.371; in experiment [1] (first compound 0.06325 µM), 0.345; in experiment [1] (first compound 0.2 µM), 0.379; in experiment [1] (first compound 2 µM) it was 0.335.
As to NCI-H647, the relative viability in experiment [2] (first compound 0.01581 µM) was found to be 0.298; in experiment [2] (first compound 0.05 µM) it was 0.39; in experiment [2] (first compound 0.1581 µM), 0.347; in experiment [2] (first compound 0.5 µM), 0.174; in experiment [3] (first compound 0.02 µM), 0.722; in experiment [3] (first compound 0.2 µM), 0.642. Moreover, the relative viability in experiment [3] (first compound 0.6325 µM) was determined as 0.736; in experiment [3] (first compound 2 µM), 0.571; in experiment [1] (first compound 0.02 µM), 0.417; in experiment [1] (first compound 0.2 µM), 0.417; in experiment [1] (first compound 2 µM), 0.331; in experiment [4] (first compound 0.02 µM), 0.28. The relative viability in experiment [4] (first compound 0.06325 µM) was 0.67; in experiment [4] (first compound 0.2 µM) it was 0.706; in experiment [4] (first compound 2 µM), 0.514.
As for A549, the relative viability in experiment [1] (first compound 0.02 µM) was 0.483; in experiment [1] (first compound 0.06325 µM), 0.511; in experiment [1] (first compound 0.2 µM) it was 0.509; in experiment [1] (first compound 2 µM), 0.487.
With NCI-H661, the relative viability in experiment [2] (first compound 0.005 µM) is 0.353; in experiment [2] (first compound 0.01581 µM), 0.372; in experiment [2] (first compound 0.05 µM), 0.384; in experiment [2] (first compound 0.1581 µM) it was 0.348; in experiment [2] (first compound 0.5 µM), 0.389; in experiment [3] (first compound 0.02 µM), 0.638. Further, the relative viability in experiment [3] (first compound 0.2 µM) came out at 0.798; in experiment [3] (first compound 0.6325 µM), 0.772; in experiment [3] (first compound 2 µM), 0.761; in experiment [1] (first compound 0.02 µM) it was 0.392; in experiment [1] (first compound 0.06325 µM) it was 0.351; in experiment [1] (first compound 0.2 µM) it was 0.33. For the same cell line, the relative viability in experiment [1] (first compound 2 µM) is 0.371; in experiment [4] (first compound 0.02 µM) it was 0.786; in experiment [4] (first compound 0.06325 µM) it was 0.784; in experiment [4] (first compound 0.2 µM), 0.743; in experiment [4] (first compound 2 µM) it was 0.676.
NCI-H1651: the relative viability was 0.558 in experiment [2] (first compound 0.005 µM); 0.7 in experiment [2] (first compound 0.01581 µM); 0.757 in experiment [2] (first compound 0.05 µM); 0.668 in experiment [2] (first compound 0.1581 µM); 0.944 in experiment [2] (first compound 0.5 µM); 0.9 in experiment [3] (first compound 0.02 µM). For the same cell line, the relative viability stood at 0.426 in experiment [3] (first compound 0.2 µM); 0.782 in experiment [3] (first compound 0.6325 µM); 0.582 in experiment [3] (first compound 2 µM); 0.579 in experiment [1] (first compound 0.02 µM); 0.647 in experiment [1] (first compound 0.06325 µM); 0.59 in experiment [1] (first compound 0.2 µM). In addition, the relative viability in experiment [1] (first compound 2 µM) worked out at 0.535; in experiment [4] (first compound 0.02 µM) it was 0.544; in experiment [4] (first compound 0.06325 µM), 0.531; in experiment [4] (first compound 0.2 µM), 0.489; in experiment [4] (first compound 2 µM), 0.588.
For the cell line HCC-78, the relative viability in experiment [2] (first compound 0.005 µM) came out at 0.577; in experiment [2] (first compound 0.01581 µM), 0.327; in experiment [2] (first compound 0.05 µM) it was 0.434; in experiment [2] (first compound 0.1581 µM), 0.494; in experiment [2] (first compound 0.5 µM), 0.343; in experiment [3] (first compound 0.02 µM), 0.336. In addition, the relative viability in experiment [3] (first compound 0.2 µM) stood at 0.372; in experiment [3] (first compound 0.6325 µM) it was 0.371; in experiment [3] (first compound 2 µM), 0.376; in experiment [1] (first compound 0.02 µM), 0.179; in experiment [1] (first compound 0.06325 µM), 0.196; in experiment [1] (first compound 0.2 µM), 0.236. For the same cell line, the relative viability in experiment [1] (first compound 2 µM) stood at 0.195; in experiment [4] (first compound 0.02 µM), 0.379; in experiment [4] (first compound 0.06325 µM) it was 0.416; in experiment [4] (first compound 0.2 µM), 0.435; in experiment [4] (first compound 2 µM), 0.431.
